Test results as given in ChEMBL document CHEMBL1148204, “Isolation and structure assignments of rostratins A-D, cytotoxic disulfides produced by the marine-derived fungus Exserohilum rostratum” (J Nat Prod, 2004).

Each compound was assayed on HCT-116 (assay: Cytotoxicity against human HCT116 cells).
Assay type: functional, cell-based
`O=C1N2[C@H]3[C@H](C[C@]24SS[C@]12C[C@H]1[C@@H]([C@@H](O)CC[C@@H]1O)N2C4=O)[C@@H](O)CC[C@@H]3O` [ROSTRATIN A] gave an IC50 of 9 µM. In the case of `O=C1CC[C@H](O)[C@H]2[C@@H]1C[C@@]13SS[C@]4(C[C@@H]5C(=O)CC[C@H](O)[C@@H]5N4C1=O)C(=O)N23` [ROSTRATIN B], the IC50 is reported as 4.4 µM. `O=C1C[C@@H](S)[C@H](O)[C@H]2[C@@H]1C[C@@]13SS[C@]4(C[C@@H]5C(=O)C[C@@H](S)[C@H](O)[C@@H]5N4C1=O)C(=O)N23` [ROSTRATIN D] was tested, and the IC50 was 35 µM. In the case of `CO[C@H]1CC(=O)[C@H]2C[C@@]34SS[C@]5(C[C@@H]6C(=O)C[C@H](OC)[C@H](O)[C@@H]6N5C3=O)C(=O)N4[C@H]2[C@H]1O` [ROSTRATIN C], the IC50 is reported as 1.6 µM.
